Data: ChEMBL document CHEMBL5550083, “Structural optimization of a lysine demethylase 5 inhibitor for improvement of its cellular activity” (Bioorg Med Chem, 2024)
Activity calls are given as the source filed them. No cut-off for these calls is given here.

How the values were obtained:
A549 [1] = assay: Inhibition of KDM5 in human A549 cells assessed as increase in H3K4me3 level at 400 nM incubated for 18 hrs by Western blot analysis; assay type: cell-based
A549 [2] = assay: Inhibition of KDM6 in human A549 cells assessed as increase in H3K27me3 level at 100 to 400 nM incubated for 18 hrs by Western blot analysis; assay type: cell-based; settings: dose 100-400 nM
A549 [3] = assay: Inhibition of KDM5 in human A549 cells assessed as increase in H3K4me3 level at 400 nM by Western blot analysis; assay type: cell-based; settings: time 1-18 hrs, TDE = time-dependent effect
[4] = Lipophilicity, log D of the compound in PBS at 100 uM at pH 7.4 incubated for 20 mins by UPLC analysis; assay type: physicochemical
A549 [5] = assay: Inhibition of KDM5 in human A549 cells assessed as increase in H3K4me3 level incubated for 18 hrs by Western blot analysis; assay type: cell-based; settings: dose 100-400 nM
A549 [6] = assay: Inhibition of KDM4 in human A549 cells assessed as increase in H3K9me3 level at 100 to 400 nM incubated for 18 hrs by Western blot analysis; assay type: cell-based; settings: dose 100-400 nM
[7] = Apparent permeability of the compound at 100 uM incubated for 4 hrs by PAMPA assay; assay type: ADME
[8] = molecular target: T1, Lysine-specific demethylase 5B (Homo sapiens, UniProt Q9UGL1); assay: Inhibition of KDM5B (unknown origin) at 10 nM incubated for 2 hrs by Alphascreen assay
T1 sequence (Q9UGL1 whole entry): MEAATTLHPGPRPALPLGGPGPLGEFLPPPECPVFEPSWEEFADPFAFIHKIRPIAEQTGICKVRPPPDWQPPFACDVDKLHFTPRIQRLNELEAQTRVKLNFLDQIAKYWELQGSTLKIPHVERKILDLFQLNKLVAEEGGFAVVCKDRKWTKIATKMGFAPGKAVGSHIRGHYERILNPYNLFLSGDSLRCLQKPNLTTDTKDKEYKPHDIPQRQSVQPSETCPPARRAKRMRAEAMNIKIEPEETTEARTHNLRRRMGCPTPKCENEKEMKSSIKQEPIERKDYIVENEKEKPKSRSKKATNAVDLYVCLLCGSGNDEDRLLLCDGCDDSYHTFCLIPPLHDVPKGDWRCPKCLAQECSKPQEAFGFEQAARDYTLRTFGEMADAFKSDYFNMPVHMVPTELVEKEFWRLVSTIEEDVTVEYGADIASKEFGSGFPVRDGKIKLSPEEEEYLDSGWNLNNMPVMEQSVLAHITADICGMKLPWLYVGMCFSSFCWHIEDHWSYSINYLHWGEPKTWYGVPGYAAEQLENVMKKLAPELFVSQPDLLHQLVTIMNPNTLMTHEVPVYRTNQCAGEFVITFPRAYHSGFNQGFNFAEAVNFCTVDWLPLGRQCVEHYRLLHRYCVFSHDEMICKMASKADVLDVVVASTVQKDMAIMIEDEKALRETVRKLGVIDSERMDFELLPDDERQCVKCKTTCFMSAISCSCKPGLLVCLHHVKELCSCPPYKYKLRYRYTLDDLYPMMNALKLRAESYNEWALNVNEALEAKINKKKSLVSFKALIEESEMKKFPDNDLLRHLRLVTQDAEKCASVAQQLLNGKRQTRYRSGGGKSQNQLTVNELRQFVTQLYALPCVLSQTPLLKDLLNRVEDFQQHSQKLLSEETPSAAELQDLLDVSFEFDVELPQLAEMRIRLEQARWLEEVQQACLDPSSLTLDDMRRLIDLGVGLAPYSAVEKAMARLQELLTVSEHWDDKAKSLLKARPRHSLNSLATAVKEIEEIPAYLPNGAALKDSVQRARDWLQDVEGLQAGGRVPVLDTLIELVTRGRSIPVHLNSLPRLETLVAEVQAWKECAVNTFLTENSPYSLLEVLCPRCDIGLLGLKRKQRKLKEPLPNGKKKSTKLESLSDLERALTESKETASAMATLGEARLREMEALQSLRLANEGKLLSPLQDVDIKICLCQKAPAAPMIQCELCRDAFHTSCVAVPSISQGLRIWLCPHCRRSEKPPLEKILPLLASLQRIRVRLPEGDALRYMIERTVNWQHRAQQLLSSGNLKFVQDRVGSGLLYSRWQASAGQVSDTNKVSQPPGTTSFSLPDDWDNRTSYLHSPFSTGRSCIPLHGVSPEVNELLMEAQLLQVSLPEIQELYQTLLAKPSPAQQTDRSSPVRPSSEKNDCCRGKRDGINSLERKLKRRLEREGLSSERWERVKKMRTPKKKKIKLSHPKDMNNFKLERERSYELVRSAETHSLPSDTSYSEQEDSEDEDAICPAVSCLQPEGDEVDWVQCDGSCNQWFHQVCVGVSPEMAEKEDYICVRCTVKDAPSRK

[9] = molecular target: T2, Lysine-specific demethylase 4A (Homo sapiens, UniProt O75164); assay: Inhibition of KDM4A (unknown origin) incubated for 2 hrs by Alphascreen assay
T2 sequence (O75164 whole entry): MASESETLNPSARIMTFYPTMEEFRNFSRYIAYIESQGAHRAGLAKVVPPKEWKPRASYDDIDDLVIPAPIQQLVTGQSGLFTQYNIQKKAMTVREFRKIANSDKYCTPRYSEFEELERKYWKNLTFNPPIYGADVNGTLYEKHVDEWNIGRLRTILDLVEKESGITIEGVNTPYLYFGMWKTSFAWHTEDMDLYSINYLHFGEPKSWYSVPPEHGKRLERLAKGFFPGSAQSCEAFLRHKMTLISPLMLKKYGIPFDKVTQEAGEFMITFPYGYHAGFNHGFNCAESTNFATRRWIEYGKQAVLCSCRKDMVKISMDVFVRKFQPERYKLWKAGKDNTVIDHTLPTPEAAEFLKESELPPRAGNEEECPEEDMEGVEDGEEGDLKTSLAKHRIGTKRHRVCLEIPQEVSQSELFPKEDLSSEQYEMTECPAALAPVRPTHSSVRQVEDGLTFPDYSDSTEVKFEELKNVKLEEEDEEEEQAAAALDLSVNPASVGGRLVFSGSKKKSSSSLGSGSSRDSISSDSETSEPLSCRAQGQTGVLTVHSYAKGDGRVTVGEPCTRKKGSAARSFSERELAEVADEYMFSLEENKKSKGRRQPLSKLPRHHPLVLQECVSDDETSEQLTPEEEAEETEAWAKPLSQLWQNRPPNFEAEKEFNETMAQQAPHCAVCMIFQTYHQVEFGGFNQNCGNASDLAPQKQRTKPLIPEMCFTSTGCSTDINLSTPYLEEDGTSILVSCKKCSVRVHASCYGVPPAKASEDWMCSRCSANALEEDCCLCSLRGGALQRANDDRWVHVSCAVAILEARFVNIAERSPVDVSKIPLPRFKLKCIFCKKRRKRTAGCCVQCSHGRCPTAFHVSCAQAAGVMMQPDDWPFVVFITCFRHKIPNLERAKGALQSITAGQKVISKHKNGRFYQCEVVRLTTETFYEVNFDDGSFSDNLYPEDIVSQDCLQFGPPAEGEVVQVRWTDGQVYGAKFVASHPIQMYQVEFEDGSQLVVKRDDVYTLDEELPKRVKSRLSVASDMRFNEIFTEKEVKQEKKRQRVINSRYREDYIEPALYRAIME

[10] = molecular target: Lysine-specific demethylase 5A (Homo sapiens, UniProt P29375); assay: Inhibition of KDM5A (unknown origin) incubated for 2 hrs by Alphascreen assay
[11] = molecular target: Lysine-specific demethylase 6B (Homo sapiens, UniProt O15054); assay: Inhibition of KDM6B (unknown origin) incubated for 2 hrs by Alphascreen assay
Chain of Lysine-specific demethylase 6B (O15054 whole entry): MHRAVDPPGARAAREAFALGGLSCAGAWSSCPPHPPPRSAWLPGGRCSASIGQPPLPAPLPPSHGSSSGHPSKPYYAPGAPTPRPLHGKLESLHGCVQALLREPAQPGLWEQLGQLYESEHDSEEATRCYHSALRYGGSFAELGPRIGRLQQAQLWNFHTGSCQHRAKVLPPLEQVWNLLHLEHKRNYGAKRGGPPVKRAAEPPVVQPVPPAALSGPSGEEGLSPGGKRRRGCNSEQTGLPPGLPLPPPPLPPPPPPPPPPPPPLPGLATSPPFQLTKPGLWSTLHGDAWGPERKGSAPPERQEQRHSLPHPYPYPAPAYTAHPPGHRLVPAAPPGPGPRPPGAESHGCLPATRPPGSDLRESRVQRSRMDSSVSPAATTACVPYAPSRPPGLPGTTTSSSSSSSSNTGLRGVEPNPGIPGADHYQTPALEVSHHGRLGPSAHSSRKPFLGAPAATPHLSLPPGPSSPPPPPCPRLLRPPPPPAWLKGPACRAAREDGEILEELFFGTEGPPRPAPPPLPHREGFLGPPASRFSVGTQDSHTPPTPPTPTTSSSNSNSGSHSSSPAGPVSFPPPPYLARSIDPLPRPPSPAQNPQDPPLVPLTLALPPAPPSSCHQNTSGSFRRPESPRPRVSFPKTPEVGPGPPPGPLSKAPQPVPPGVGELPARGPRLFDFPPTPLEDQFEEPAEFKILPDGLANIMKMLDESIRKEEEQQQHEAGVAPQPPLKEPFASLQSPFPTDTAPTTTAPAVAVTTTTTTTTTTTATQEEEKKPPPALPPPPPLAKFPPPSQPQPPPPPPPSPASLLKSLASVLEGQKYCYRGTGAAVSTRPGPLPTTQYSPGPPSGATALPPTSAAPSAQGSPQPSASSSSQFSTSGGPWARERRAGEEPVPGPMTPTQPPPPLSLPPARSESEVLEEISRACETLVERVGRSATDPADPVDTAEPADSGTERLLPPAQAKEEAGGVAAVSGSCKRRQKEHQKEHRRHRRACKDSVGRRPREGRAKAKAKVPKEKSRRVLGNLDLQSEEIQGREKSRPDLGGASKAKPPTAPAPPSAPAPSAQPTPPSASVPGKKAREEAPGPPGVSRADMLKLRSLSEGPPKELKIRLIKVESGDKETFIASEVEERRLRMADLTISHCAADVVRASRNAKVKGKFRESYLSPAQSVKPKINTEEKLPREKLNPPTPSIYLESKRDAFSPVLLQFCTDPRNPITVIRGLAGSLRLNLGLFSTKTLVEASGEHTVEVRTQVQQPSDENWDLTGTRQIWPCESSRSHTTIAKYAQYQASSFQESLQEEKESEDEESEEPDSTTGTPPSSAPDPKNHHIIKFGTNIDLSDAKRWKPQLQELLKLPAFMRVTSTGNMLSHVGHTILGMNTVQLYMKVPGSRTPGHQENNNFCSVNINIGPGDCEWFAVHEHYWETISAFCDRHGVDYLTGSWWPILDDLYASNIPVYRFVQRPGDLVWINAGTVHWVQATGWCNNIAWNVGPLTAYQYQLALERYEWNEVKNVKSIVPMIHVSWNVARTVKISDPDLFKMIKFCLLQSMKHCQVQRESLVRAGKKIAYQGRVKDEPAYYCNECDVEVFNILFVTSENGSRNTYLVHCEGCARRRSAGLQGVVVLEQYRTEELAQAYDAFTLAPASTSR

[12] = molecular target: T3, Lysine-specific demethylase 3A (Homo sapiens, UniProt Q9Y4C1); assay: Inhibition of KDM3A (unknown origin) incubated for 2 hrs by Alphascreen assay
T3 sequence (Q9Y4C1 whole entry): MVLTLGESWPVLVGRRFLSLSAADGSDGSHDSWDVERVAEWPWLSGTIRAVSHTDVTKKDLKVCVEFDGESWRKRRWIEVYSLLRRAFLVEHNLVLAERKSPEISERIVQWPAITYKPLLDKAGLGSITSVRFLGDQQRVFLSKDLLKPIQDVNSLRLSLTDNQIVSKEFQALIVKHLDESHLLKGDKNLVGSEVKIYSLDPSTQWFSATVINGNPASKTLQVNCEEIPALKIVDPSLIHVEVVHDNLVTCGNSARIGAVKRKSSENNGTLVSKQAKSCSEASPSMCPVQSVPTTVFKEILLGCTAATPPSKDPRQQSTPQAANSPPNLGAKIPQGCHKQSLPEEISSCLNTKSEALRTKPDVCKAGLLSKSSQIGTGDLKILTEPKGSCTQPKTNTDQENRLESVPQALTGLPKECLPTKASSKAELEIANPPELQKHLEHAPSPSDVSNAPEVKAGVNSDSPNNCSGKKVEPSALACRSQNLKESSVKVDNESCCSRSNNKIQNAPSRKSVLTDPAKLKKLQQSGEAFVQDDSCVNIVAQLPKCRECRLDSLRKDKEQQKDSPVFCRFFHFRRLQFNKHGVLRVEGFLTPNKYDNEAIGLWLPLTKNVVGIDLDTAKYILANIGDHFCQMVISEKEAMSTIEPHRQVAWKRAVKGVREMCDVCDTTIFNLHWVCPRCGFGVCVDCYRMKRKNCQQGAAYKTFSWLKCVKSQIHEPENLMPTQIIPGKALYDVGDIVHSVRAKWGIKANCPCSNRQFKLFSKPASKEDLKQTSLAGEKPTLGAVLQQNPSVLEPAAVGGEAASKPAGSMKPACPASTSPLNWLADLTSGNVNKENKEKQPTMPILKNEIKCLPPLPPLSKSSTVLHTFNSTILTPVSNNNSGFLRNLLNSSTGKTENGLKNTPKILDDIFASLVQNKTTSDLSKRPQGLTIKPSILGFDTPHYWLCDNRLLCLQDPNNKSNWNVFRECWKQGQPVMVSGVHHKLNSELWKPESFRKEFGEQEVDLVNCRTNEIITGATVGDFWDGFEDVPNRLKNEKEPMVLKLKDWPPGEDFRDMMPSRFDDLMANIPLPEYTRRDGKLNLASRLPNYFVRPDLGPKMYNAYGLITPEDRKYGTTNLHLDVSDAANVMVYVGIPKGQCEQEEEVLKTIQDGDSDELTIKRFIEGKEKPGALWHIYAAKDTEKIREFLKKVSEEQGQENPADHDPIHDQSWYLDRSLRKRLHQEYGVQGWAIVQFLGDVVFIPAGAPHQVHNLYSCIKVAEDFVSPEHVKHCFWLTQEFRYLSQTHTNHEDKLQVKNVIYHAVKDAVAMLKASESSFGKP

[13] = molecular target: Lysine-specific demethylase 5C (Homo sapiens, UniProt P41229); assay: Inhibition of KDM5C (unknown origin) incubated for 2 hrs by Alphascreen assay
Chain of Lysine-specific demethylase 5C (P41229 whole entry): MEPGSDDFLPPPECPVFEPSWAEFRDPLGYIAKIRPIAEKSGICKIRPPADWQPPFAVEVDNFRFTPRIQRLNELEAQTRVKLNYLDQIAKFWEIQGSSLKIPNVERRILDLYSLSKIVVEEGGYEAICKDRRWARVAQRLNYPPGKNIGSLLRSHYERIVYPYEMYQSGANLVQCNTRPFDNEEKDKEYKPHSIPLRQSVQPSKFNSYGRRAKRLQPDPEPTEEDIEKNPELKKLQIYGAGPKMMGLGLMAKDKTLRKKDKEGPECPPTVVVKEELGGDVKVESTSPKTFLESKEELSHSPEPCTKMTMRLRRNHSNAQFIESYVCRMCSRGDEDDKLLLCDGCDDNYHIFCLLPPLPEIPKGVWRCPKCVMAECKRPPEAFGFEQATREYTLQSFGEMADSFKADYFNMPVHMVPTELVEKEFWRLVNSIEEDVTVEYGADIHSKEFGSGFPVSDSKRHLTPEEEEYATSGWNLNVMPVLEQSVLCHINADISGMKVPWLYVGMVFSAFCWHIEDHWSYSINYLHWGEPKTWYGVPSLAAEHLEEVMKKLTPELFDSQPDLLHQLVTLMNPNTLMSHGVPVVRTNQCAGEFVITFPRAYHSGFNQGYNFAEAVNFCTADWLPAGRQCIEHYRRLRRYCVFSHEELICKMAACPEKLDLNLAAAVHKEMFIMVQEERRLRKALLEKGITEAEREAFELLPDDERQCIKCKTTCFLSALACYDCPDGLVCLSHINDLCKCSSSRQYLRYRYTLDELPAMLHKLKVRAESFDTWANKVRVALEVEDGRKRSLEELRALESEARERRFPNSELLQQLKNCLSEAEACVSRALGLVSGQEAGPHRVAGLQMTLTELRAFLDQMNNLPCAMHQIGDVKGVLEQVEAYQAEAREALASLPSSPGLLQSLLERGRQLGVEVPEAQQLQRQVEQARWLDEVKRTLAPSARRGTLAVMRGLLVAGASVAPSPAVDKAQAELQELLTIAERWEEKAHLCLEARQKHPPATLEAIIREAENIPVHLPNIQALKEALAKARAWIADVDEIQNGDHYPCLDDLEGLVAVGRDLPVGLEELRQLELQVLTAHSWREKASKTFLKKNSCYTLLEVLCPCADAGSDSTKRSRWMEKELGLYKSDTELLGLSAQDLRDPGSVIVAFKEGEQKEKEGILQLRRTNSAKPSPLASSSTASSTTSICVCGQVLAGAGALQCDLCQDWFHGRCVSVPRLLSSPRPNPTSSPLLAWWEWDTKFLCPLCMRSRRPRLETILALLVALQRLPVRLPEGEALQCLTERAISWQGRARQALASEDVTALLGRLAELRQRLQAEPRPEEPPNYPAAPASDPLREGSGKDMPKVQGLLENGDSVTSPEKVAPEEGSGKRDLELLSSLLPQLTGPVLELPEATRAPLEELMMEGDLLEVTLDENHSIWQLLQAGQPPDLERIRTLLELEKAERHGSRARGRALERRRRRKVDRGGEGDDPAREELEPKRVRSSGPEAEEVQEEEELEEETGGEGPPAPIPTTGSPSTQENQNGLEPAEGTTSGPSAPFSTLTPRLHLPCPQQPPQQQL

[14] = molecular target: T1, Lysine-specific demethylase 5B; assay: Inhibition of KDM5B (unknown origin) incubated for 2 hrs by Alphascreen assay

Q: Which inhibition (A549 [1]) does the source give for CCCCN(C)CCN(CC)C(=O)CNCc1cc(C(=O)OCC)ccn1 here?
A: Active

Q: And the inhibition (A549 [2])?
A: inactive

Q: What about the inhibition (A549 [3]) of the same compound?
A: Tde

Q: What about the logD at 20 min, 100 µM [4] of the same compound?
A: 2.2

Q: And the inhibition (A549 [5])?
A: Dose-Dependent Effect

Q: What about the inhibition (A549 [6]) of the same compound?
A: inactive

Q: And the Papp at 4 h, 100 µM [7]?
A: 0.6 ×10⁻⁶ cm/s

Q: For CCN(CC)CCN(CC)C(=O)CNCc1cc(C(=O)O)ccn1, which inhibition activity call [8] is on record?
A: Active

Q: With CCN(CCN(C)C)C(=O)CNCc1cc(C(=O)O)ccn1 as the compound, how does the IC50 [9] read?
A: 172 nM

Q: And the IC50 [10]?
A: 1.42 nM

Q: And the IC50 [11]?
A: > 5000 nM

Q: And the IC50 [12]?
A: > 50000 nM

Q: What about the IC50 [13] of the same compound?
A: 9.92 nM

Q: And the IC50 [14]?
A: 2.23 nM

Q: Which results are given for CCN(CCN(C)C(C)C)C(=O)CNCc1cc(C(=O)O)ccn1?
A: inhibition activity call [8]: Active; IC50 [14]: 3.05 nM

Q: With CCCCN(CCCC)CCN(CC)C(=O)CNCc1cc(C(=O)O)ccn1 as the compound, how does the inhibition activity call [8] read?
A: Active

Q: With CCOC(=O)c1ccnc(CNCC(=O)N(CC)CCN(C)C)c1 as the compound, how does the logD at 20 min, 100 µM [4] read?
A: 1.5

Q: What about the IC50 [14] of the same compound?
A: 207 nM

Q: What about the Papp at 4 h, 100 µM [7] of the same compound?
A: 0.1 ×10⁻⁶ cm/s

Q: For CCN(C)CCN(CC)C(=O)CNCc1cc(C(=O)O)ccn1, which inhibition activity call [8] is on record?
A: Active

Q: What about the IC50 [14] of the same compound?
A: 6.94 nM

Q: What does the source list for CCN(CCN(C)Cc1ccccc1)C(=O)CNCc1cc(C(=O)O)ccn1?
A: inhibition activity call [8]: Active; IC50 [14]: 8.42 nM

Q: Which results are given for CCCCN(C)CCN(CC)C(=O)CNCc1cc(C(=O)O)ccn1?
A: IC50 [9]: 389 nM; IC50 [10]: 1.22 nM; IC50 [11]: > 5000 nM; IC50 [12]: > 50000 nM; IC50 [13]: 13.6 nM

Q: For CCN(CCN(Cc1ccccc1)Cc1ccccc1)C(=O)CNCc1cc(C(=O)O)ccn1, which inhibition activity call [8] is on record?
A: Active

Q: Which inhibition activity call [8] does the source give for CCCN(CCC)CCN(CC)C(=O)CNCc1cc(C(=O)O)ccn1 here?
A: Active

Q: For CC(C)NCC(O)COc1cccc2ccccc12 (stereo not given) [PROPRANOLOL], which Papp at 4 h, 100 µM [7] is on record?
A: 3.9 ×10⁻⁶ cm/s

Q: Which inhibition activity call [8] does the source give for CCN(CCN(C(C)C)C(C)C)C(=O)CNCc1cc(C(=O)O)ccn1 here?
A: Active

Q: Which inhibition activity call [8] does the source give for CCCN(C)CCN(CC)C(=O)CNCc1cc(C(=O)O)ccn1 here?
A: Active

Q: And the IC50 [14]?
A: 6.32 nM
